Laboratory results as given in patent US20230357240A1, “NOVEL N-HETEROCYCLIC BET BROMODOMAIN INHIBITOR, AND PREPARATION METHOD THEREOF AND MEDICAL USE THEREOF” (Chengdu Easton Biopharmaceuticals Co., Ltd., priority 2020, published 2023).
Like-named read-outs stand apart in the source and are kept apart here.

Key:
[1] = Pharmacokinetic test in SD rats (plasma drug concentration by LC/MS/MS); type: in vivo; conditions: rat, 2 mg/kg; for AUC(0-t): read-out: Area under the curve AUClast; for half-life: read-out: Half life T1/2 (converted); for Cmax: read-out: Peak concentration Cmax; for MRT: read-out: Retention time MRT; for Tmax: read-out: Time to peak Tmax
Method: EXAMPLE 10 Pharmacokinetic Test of the Compound of the Present Application
SD rats were used as test animals. After gavage administration or tail vein injection of the compound of the present application to the rats, plasma drug concentrations were measured by the LC/MS/MS method at different moments, and pharmacokinetic features of the compound of the present application in the rats was studied.
Source of SD rats: Chengdu Dashuo Experimental Animal Co., Ltd.
Method of administration: single gavage administration and single tail vein injection
Dosage and concentration: 2 mg/kg rat body weight, 0.5 mg/mL
Formulation: 20% β-cyclodextrin solution
Sampling points: 5 min, 15 min, 30 min, 45 min, 1 h, 1.5 h, 2 h, 4 h, 5 h, 6 h, 7 h, 8 h, 9 h and 24 h
Standard curve preparation and sample treatment: 10 mg of the sample to be tested was accurately weighed and added into 1 mL of DMSO for dissolution, and the mixture was used as a stock solution. The stock solution was diluted with 50% (v/v) methanol aqueous solution to prepare standard working solutions having a concentration of 10, 20, 50, 100, 200, 500, 1000 and 2000 ng/mL, respectively. 5 μL of each of the standard working solutions was added to 45 μL of blank rat plasma to prepare standard samples containing the analyte at concentrations of 1.00, 2.00, 5.00, 10.00, 20.00, 50.00, 100.00 and 200.00 ng/mL, 200 μL of methanol (containing internal standard substance: 5 ng/mL memantine hydrochloride) was added to each standard sample, the standard samples were oscillated for 3 minutes and centrifuged at 12000 rpm at 4° C. for 10 minutes, and […] of the supernatant was collected for LC-MS/MS analysis. The test results were calculated by Analyst® software.
Preparation of quality control solution and sample treatment: 10 mg of the sample to be tested was accurately weighed and added into 1 mL of DMSO for dissolution, and the mixture was used as a stock solution. The stock solution was diluted with 50% (v/v) methanol aqueous solution to prepare quality control working solutions having a concentration of 30, 600 and 1600 ng/mL, respectively. 5 μL of each of the quality control working solutions was added to 45 μL of blank rat plasma to prepare quality control samples containing the analyte at concentrations of 3.00, 60.00 and 160.00 ng/mL, 200 μL of methanol (containing internal standard substance: 5 ng/mL memantine hydrochloride) was added to each standard sample, the standard samples were oscillated for 3 minutes and centrifuged at 12000 rpm at 4° C. for 10 minutes, and […] of the supernatant was collected for LC-MS/MS analysis. The test results were calculated by Analyst® software.

MV4-11 xenograft tumor = assay: In vivo efficacy test, MV4-11 xenograft tumor model in mice; conditions: NOD-SCID mice, 5 mg/kg qd gavage, 14 days
Description: EXAMPLE 11 In Vivo Efficacy Test of the Compound of the Present Application
Objective: To test the inhibitory effect of the test compound on the growth of xenograft tumor in nude mice with MV4-11 leukemia.
Method: NOD-SCID mice were subcutaneously inoculated with MV4-11 cells to establish an MV4-11 xenograft tumor model in mice. 16 days after inoculation (d16), average tumor volume was about 210 mm^3. According to the tumor volumes, the tumor-bearing mice were grouped in a random block method, with 6 mice in each group. The groups included a solvent control group, an ABBV-744 control group, and a test sample group, the dosage was 5 mg/kg mouse body weight, and the dose volume was 10 mL/kg mouse body weight, once a day. Each group was gavage administered for 14 consecutive days, and the solvent control group was gavage administered with a blank solvent (20% […] solution). Tumor volumes were measured twice weekly after administration of the test drug. The animals were euthanized after the test.

hERG = target: T1, hERG (Homo sapiens, UniProt Q12809); assay: hERG inhibition test, whole-cell patch clamp in HEK293 cells stably expressing the hERG ion channel; type: cell-based; conditions: human, HEK293 cells stably expressing the hERG ion channel
T1 construct: expressed in transfected cells; host or cells: HEK293 cells stably expressing hERG
Method: (§1) An hERG current was recorded by the whole-cell patch clamp technique. A suspension of HEK293 cells stably expressing the hERG ion channel was added to a 35 mm culture dish, and the culture dish was put on a stage of an inverted microscope. […] The pulse program was repeated every 15 seconds throughout the whole test. After the current became stable, the administration method of continuous extracellular perfusion from low concentration to high concentration was used, and the perfusion started from low concentration and continued until the drug effect was stable, and then the perfusion of the next concentration was performed.
(§2) After the test, stimulus release and signal acquisition were carried out through PatchMaster software. Graphpad Prism 8.0 was used for further data analysis and curve fitting. Effects of each compound at different concentrations were represented with an inhibition rate of the tail current. Inhibition rate=(peak tail current before administration—peak tail current after administration)/peak tail current before administration x 100%. Half-maximal inhibitory concentration IC50 of the test samples was obtained by the fitting analysis with Hill equation.

hERG ion channel = target: T2, hERG ion channel (Homo sapiens, UniProt Q12809); assay: as above; type: cell-based; conditions: tail current, Hill equation fit
T2 construct: expressed in transfected cells; host or cells: HEK293 cells stably expressing hERG
Method: as §1, §2

[2] = read-out: Average hERG inhibition rate
[3] = read-out: hERG Inhibition rate, Cell 1
[4] = read-out: hERG Inhibition rate, Cell 2

T1 sequence (Q12809 whole entry): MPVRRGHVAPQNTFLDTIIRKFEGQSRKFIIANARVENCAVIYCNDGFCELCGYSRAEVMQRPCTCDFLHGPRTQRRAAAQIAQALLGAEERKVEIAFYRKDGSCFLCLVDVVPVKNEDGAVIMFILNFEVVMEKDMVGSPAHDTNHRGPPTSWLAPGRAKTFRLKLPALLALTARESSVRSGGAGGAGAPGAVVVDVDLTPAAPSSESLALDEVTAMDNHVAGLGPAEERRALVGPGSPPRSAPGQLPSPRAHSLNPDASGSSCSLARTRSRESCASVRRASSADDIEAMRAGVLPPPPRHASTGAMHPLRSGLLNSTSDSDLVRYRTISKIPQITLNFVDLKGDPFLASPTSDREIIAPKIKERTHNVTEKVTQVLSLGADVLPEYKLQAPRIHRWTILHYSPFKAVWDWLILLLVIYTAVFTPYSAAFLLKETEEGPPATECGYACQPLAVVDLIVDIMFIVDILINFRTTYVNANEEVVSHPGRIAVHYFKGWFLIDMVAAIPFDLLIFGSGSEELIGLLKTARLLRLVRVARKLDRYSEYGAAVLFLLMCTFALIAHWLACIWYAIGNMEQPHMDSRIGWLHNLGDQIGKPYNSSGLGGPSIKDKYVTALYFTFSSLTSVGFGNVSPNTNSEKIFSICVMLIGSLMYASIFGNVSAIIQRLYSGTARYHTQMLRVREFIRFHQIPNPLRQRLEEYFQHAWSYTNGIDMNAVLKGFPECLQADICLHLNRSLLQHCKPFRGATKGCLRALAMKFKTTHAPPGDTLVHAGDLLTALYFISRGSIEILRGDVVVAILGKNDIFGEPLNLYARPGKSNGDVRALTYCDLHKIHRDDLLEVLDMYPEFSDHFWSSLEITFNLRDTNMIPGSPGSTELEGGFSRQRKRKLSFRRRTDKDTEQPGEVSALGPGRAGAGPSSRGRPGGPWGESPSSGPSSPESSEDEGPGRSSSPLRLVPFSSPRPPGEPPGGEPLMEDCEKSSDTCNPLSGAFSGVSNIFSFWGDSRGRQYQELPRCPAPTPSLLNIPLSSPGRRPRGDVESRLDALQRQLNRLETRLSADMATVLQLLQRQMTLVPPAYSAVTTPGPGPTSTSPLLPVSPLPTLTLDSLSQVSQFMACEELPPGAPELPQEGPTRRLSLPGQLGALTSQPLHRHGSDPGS
T2 sequence (Q12809 whole entry): as above

AUC(0-t) ([1]; iv, tail vein injection): 327 ng·h/mL
half-life ([1]; iv, tail vein injection): 61.8 min
Cmax ([1]; iv, tail vein injection): 276 ng/mL
MRT ([1]; iv, tail vein injection): 87 min
Tmax ([1]; iv, tail vein injection): 4.8 min
AUC(0-t) ([1]; po, gavage): 250 ng·h/mL
half-life ([1]; po, gavage): 49.8 min
Cmax ([1]; po, gavage): 143 ng/mL
MRT ([1]; po, gavage): 82.2 min
Tmax ([1]; po, gavage): 17.4 min
SMILES: CCNC(=O)c1cc2c(-c3sc(C(C)(C)O)cc3N3CCc4ccccc43)cn(C)c(=O)c2[nH]1 [Compound 1, N-ethyl-4-(5-(2-hydroxypropyl-2-yl)-3-(indolin-1-yl)thiophen-2-yl)-6-methyl-7-oxo-6,7-dihydro-1H-pyrrolo[2,3-c]pyridine-2-carboxamide]
Relative tumor proliferation rate T/C (MV4-11 xenograft tumor): 33.15%
inhibition at 0.37 µM (hERG; [2]): 3.89%
inhibition at 0.37 µM (hERG; [3]): 0.98%
inhibition at 0.37 µM (hERG; [4]): 6.79%
inhibition at 1.11 µM (hERG; [2]): 4.35%
inhibition at 1.11 µM (hERG; [3]): -0.28%
inhibition at 1.11 µM (hERG; [4]): 8.97%
inhibition at 3.33 µM (hERG; [2]): 10.1%
inhibition at 3.33 µM (hERG; [3]): 2.97%
inhibition at 3.33 µM (hERG; [4]): 17.3%
inhibition at 10 µM (hERG; [2]): 21.6%
inhibition at 10 µM (hERG; [3]): 14.6%
inhibition at 10 µM (hERG; [4]): 28.6%
inhibition at 30 µM (hERG; [2]): 56.3%
inhibition at 30 µM (hERG; [3]): 54.3%
inhibition at 30 µM (hERG; [4]): 58.3%
IC50 (hERG ion channel): 26.8 µM
